Reference: ChEMBL document CHEMBL1145543, “X-ray snapshot of the mechanism of inactivation of human neutrophil elastase by 1,2,5-thiadiazolidin-3-one 1,1-dioxide derivatives” (J Med Chem, 2008)

Key:
[1] = biological target: T1, Neutrophil elastase (Homo sapiens) (UniProt P08246); assay: Ratio of Kinact to KI for human neutrophil elastase
T1 sequence (whole entry): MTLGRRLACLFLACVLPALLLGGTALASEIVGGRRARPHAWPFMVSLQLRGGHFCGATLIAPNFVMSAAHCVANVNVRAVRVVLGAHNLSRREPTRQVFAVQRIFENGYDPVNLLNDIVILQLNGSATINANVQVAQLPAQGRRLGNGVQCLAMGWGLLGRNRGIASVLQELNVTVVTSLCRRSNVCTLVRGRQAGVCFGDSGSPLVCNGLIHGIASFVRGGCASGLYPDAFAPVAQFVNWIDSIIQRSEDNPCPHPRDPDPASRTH

Neutrophil elastase = biological target: T2, Neutrophil elastase (Homo sapiens, UniProt P08246); assay: Inhibition human neutrophil elastase
T2 sequence (P08246 whole entry): T1 sequence (whole entry)

Bos taurus = species on record: Bos taurus; assay: Inhibition of bovine trypsin; conditions: TDE = time-dependent effect

- Ratio [1]: 8.9 10^6/M/s
- Ki (Neutrophil elastase): 5.47 nM
- Activity (Bos taurus): tde
Compound: CCCC1C(=O)N(COC(=O)c2c(Cl)cccc2Cl)S(=O)(=O)N1C (stereo not drawn)
